In patent US5840740A, “Aminosterol compounds and a method of treating infection using the aminosterol compounds” (priority 1995, dated 1998):
“Also recorded” adds a separate entry of the source.

Columns and labels:
[1] = tested on: chick embryo vitelline capillaries; assay: Chick embryo vitelline capillary regression assay; type: in vivo; design: key to vascular reactivity (capillary regression): +: Vascular reactivity; 0: No vascular reactivity; +/-: Equivocal reactivity; details: for vascular reactivity (capillary regression): 60 min
How it was run: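 Each compound was applied onto 3-day chick embryos in 0.1 ml 15% Ficol 400 in PBS. Regression of vitelline capillaries was scored visually after 60 minutes.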

[2] = tested on: human epithelial cell line MCF 10A; assay: Growth inhibition of epithelial cells in vitro; type: cell-based; details: 10 μg/ml; absorbance at 600 nm
[3] = tested on: rabbit NHE1; assay: pH recovery in PS120 fibroblasts transfected with rabbit NHE1; type: cell-based; details: 5 μg/ml; acid-preloaded
Protocol: (§1) PS120 fibroblasts transfected with rabbit or human NHE1 were grown as described above.

[4] = tested on: human microvascular cells; assay: Inhibition of endothelial cell cord formation in vitro; type: cell-based; details: at cord formation-inhibiting concentrations
From the text: Endothelial cells have the capacity in vitro to form tubular aggregates resembling capillaries in various early stages of formation. This conversion occurs under relatively specific conditions, in which essential growth factors along with an effective substratum are provided. It has been shown that both the interaction of growth factors with the endothelial cell and its attachment to a substratum activate the NHE. The activation of this exchanger is believed to be required for subsequent morphologic transformation of the endothelial cell into a multicellular tubular structure.
To assess the effect of compounds on the cord-like structures formed by human microvascular cells when plated in the presence of VEFG (Vascular Endothelial Growth Factor) and basic fibroblast growth factor on a collagen matrix, a standard cord formation assay was used.

[5] = tested on: human umbilical venous endothelial cells; assay: LPS-induced neutrophil adherence to endothelial cells; details: squalamine 10, 1.0 or 0.1 μg; three subjects
Protocol: To determine if squalamine inhibited this particular endothelial cell function, standard adhesion assays were performed as outlined in Gamble et al., J. Imm. […] In these experiments, approximately 2×10^5 human umbilical venous cells (passage 2-6) were plated per well. The cells were grown in serum-free media overnight. For induction, either TNF-α (40 ng/ml) was added to endothelial cells for 6 hours prior to adding neutrophils or LPS (100 ng/ml) was added for 4-6 hours. […] After activation of the endothelial cells, approximately 50×10^6 neutrophils were added per well. The plates were gently rocked for 30 minutes at room temperature, followed by removal of the media and washing in serum-free media three times and then photographing of each well. Experiments to test the effects of squalamine were performed by adding squalamine at 10 μg, 1.0 μg, or 0.1 μg at the time of adding LPS or TNF-α. A second repeat dose of squalamine was added at the time of adding neutrophils. A monoclonal Ab to ICAM-1 was a positive control.

[6] = tested on: melanoma 1205Lu; assay: Human melanoma growth in immunocompromised RAG-1 mice; type: in vivo, human tumor in RAG-1 mice; details: 10, 20, 40 mg/kg/d (FIG. 5)
From the text: As apparent from FIG. 5, melanoma 1205Lu develops aggressively in RAG-1 mice after implantation.

[7] = tested on: chorioallantoic membrane; assay: Chorioallantoic membrane (CAM) model; type: in vivo, chick; details: for Percentage positive, Assay 1 / Percentage positive, Assay 2: 3-day embryo, some vascular irritation noted
From the text: The growing capillaries within the chorioallantoic membrane model (CAM model) have been used as a system in which to evaluate the effect of agents on their potential to inhibit new vessel growth. Neovascularization occurs most aggressively over the first week of embryonic development. Thereafter capillary growth is characterized by principally "elongation" rather than "de novo" formation.
In the standard assay, agents are applied locally to a region of the embryo over which neovascularization will occur. Agents are assessed by their ability to inhibit this process, as evaluated by visual examination about 7 days after application. […] The assay utilized is described in detail in Auerbach et al., Pharm. Ther. 51, 1991, 1-11.

[8] = Fasting blood glucose in mice; type: in vivo, mouse (male CD-1); details: 2 x 10 mg/kg i.v. (total 20 mg/kg), 30 min after 2d dose; in H2O (1437, 1256) or D5W (1436)
Protocol: To study the effect of steroid administrator or the NHE responsible for secretion of insulin, several of the aminosterols from shark liver were administered to fasting mice. Male CD-1 mice were assigned to one of four treatment groups. Whole blood glucose was tested using glucometer (Lifescan Glucometer II and One Touch test strips). Statistical analysis was via one-way analysis of variance (ANOVA) followed by subsequent Bonferonni's t-test.

[9] = tested on: B16; assay: Cytostatic activity against B16 in culture; type: cell-based, murine
[10] = tested on: B16 melanoma; assay: B16 melanoma growth in C57B mice; type: in vivo, mouse
Protocol: The growth of B16 melanoma in C57B mice is dependent upon neovascularization.
Using the growth of B16 melanoma cells in C57B mice, a recognized model for the evaluation of inhibitors of angiogenesis on the growth of cancers, the effects of subcutaneous, intraperitoneal and oral administration of squalamine were evaluated.
In this model, there was observed little evidence of metastasis with or without treatment with chemotherapeutic agents.
Based on the idea that tumor growth involves both the clonal expansion of a malignant cell along with the development of a supporting vascular supply, a combination of compound 1436 with squalamine was tested to determine whether it would achieve a synergistic effect on solid tumor growth. This concept was evaluated in the B16 melanoma model.
Animals were implanted with B16 melanoma followed by treatment with compound 1436 or 1256 administered in a combined schedule or separately. […] Thus, a combination of these two compounds achieves a therapeutic benefit in tumors dependent on neovascularization that may prevent metastatic spread.

[11] = biological target: rabbit NHE3 (Oryctolagus cuniculus, UniProt P26432); details: 5 μg/ml squalamine; cells not acid-preloaded
rabbit NHE3, sequence (P26432 30-832): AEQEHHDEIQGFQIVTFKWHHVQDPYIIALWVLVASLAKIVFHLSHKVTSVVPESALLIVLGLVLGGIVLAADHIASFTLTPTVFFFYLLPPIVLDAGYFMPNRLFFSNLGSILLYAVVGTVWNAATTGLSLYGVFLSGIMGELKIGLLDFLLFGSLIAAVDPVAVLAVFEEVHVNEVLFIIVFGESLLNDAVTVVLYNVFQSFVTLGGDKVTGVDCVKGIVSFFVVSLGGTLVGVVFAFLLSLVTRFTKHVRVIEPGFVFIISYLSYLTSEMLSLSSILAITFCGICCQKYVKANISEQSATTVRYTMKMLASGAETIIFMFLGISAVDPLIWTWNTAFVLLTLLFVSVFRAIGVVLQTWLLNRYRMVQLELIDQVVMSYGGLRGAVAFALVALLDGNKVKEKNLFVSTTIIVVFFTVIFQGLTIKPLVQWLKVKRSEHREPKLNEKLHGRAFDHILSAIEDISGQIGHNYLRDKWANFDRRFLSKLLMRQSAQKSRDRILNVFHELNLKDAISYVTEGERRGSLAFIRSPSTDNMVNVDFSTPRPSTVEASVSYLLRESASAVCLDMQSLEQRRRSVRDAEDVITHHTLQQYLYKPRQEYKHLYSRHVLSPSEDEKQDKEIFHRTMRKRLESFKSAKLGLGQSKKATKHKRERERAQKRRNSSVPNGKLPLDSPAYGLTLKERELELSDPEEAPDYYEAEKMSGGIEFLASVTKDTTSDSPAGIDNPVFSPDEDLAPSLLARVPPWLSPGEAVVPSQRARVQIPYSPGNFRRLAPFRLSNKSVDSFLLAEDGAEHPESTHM
Protocol: For cells not acid-preloaded, the actual internal pH value was monitored as a function of time following addition of squalamine, with the results depicted in FIG. 1B.
PS120 fibroblasts transfected with rabbit NHE3 were grown and acid preloaded by exposure to 40 mM NH4 C1 as described above in conjunction with FIGS. 1A and 1B. Internal cellular pH changes expressed as the rate of pH recovery as a function of restored extracellular sodium ion concentration following exposure to 10 μg/ml of the compound were assayed with the fluorescent dye BCECF-AM as described above.

[12] = tested on: human NHE1; assay: pH recovery in PS120 fibroblasts transfected with human NHE1; type: cell-based; details: 5 μg/ml; acid-preloaded
Protocol: as §1

[13] = tested on: human coronary artery smooth muscle; assay: Proliferation of human coronary artery smooth muscle in vitro; type: cell-based; details: in words (1436: about 11 μg/ml)
From the text: Aminosterols of the invention may also have utility in inhibiting the growth factor mediated proliferation of smooth muscle within the artery. Following coronary angioplasty, reocclusion commonly occurs, secondary to reparative proliferation of the vascular smooth muscle within the wall of the surgically manipulated blood vessel. This process generally takes place over the course of 7-10 days. To evaluate whether an agent could prevent the growth factor mediated proliferation of smooth muscle within the artery, compound 1436 was evaluated in vitro for its effect on the proliferation of human coronary artery smooth muscle. Results for compound 1436 are shown in FIG. 13, and those for squalamine are shown in FIG. 14, with FIG. 15 being a composite logarithmic plot.

[14] = tested on: human foreskin fibroblasts; assay: Growth inhibition of fibroblasts in vitro; type: cell-based; details: 10 μg/ml; absorbance at 600 nm
[15] = tested on: Xenopus tadpole; details: stage 59-60, 10 μg/ml
[16] = tested on: bacteria, fungi and protozoa; details: background; cited from earlier work
[17] = tested on: PHA-stimulated human lymphocytes; assay: Inhibition of mitogen (PHA)-stimulated growth of human T-cells; type: cell-based; details: in words; 10 μg/ml
From the text: Results are tabulated below.

[18] = tested on: bovine pulmonary endothelial cells; assay: Growth inhibition of endothelial cells in vitro; type: cell-based; details: 1 μg/ml; absorbance at 600 nm

For `CC(C)[C@@H](CC[C@@H](C)[C@H]1CC[C@H]2[C@@H]3[C@H](O)C[C@H]4C[C@@H](NCCCNCCCCN)CC[C@]4(C)[C@H]3CC[C@]12C)OS(=O)(=O)O` [Squalamine, squalamine], the “vascular reactivity (capillary regression)” value (from here on “vascular reactivity”) ([1]; 0.001 μg applied) was 0, the “vascular reactivity” value ([1]; 0.01 μg applied) was “+” and the “vascular reactivity” value ([1]; 0.1 μg applied) was “+”. The “vascular reactivity” value ([1]; 1 μg applied) was “+”, the “vascular reactivity” value ([1]; 10 μg applied) was “+” and the “effect on chick embryo vessels / blood” value ([1]; in words) was “disrupt vitelline capillaries in 3- to 5-day chick embryos”. The “effect on chick embryo vessels / blood” value ([1]; in words, listed as squalamine) was “especially active”, the “hemorrhage / hemolysis / heartbeat in chick embryo” value ([1]; in words, listed as squalamine) was “No hemorrhage was seen; also recorded: absence of hemolysis; also recorded: The embryonic heart continued to beat vigorously” and the growth inhibition [2] was “no effect”. The “inhibition of rabbit NHE1” value [3] was “no inhibitory activity; also recorded: lack of inhibition of rabbit sodium/proton exchanger isoform 1 (NHE1)”, the “effect on cell viability or proliferation” value [4] was “does not appear to profoundly affect cell viability or proliferation” and the “inhibition of neutrophil adherence” value [5] was “no inhibition”. The “suppression of human melanoma growth” value [6] was “suppress the growth of melanoma 1205Lu in RAG-1 mice in a dose-dependent fashion; also recorded: clear suppression of tumor growth in a dose-dependent fashion”, the “suppression of human melanoma growth” value ([6]; listed as squalamine) was “After cessation of treatment, tumor growth continued at a rate similar to untreated controls” and the “Percentage positive, Assay 1” value ([7]; 20 μg applied) was 52 Percentage. For the same compound, the “Percentage positive, Assay 2” value ([7]; 20 μg applied) was 58 Percentage, the “Percentage positive, Assay 1” value ([7]; 40 μg applied) was 50 Percentage and the “Percentage positive, Assay 2” value ([7]; 40 μg applied) was 13 Percentage. For the same compound, the Percentage positive ([7]; 13-day embryo, 5.0 μg applied, positive/total) was 0/26, the “Fasting Blood Glucose Mean ± SEM” value [8] was 65 ± 7.3 mg/dL and the “cytostatic activity against B16” value [9] was “minimal cytostatic activity against B16 in culture, except at very high concentrations”. For the same compound, the “body weight and hematologic parameters” value ([10]; s.c., i.p. or oral squalamine) was “no significant depression”, the “effect on B16 tumor volume, single agent and combination” value ([10]; squalamine 5 mg/kg/day, compound 1436 10 mg/kg/every 3 days) was “no significant impact on tumor volume” and the “suppression of B16 melanoma tumor growth” value ([10]; squalamine subcutaneous, intraperitoneal, oral) was “a dose-dependent suppression of tumor volume; also recorded: suppression of the growth of murine melanoma”. The “resting internal pH” value [11] was “the resting pH of these cells was also inhibited”, the “inhibition of human NHE1” value [12] was “no inhibitory activity; also recorded: lack of inhibition of human NHE1” and the “growth suppression / viability of smooth muscle cells” value [13] was “suppress in vitro the growth of human coronary artery smooth muscle”. For the same compound, the growth inhibition [14] was “no effect”, the time to death [15] was at most 2 h and the “pharmacological response in tadpole” value ([15]; in words, listed as Compound 1256 (Squalamine)) was “Vascular occlusion in fine capillaries of tail. No effect on vascular flow through hands or feet”. For the same compound, the antibiotic spectrum [16] was “broad-spectrum antibiotic, killing bacteria, fungi and protozoa”, the “inhibition of blast transformation” value [17] was “Some effect” and the growth inhibition [18] was “inhibited the growth”.
